Results reported in ChEMBL document CHEMBL2311450, “Synthesis and antibacterial evaluation of novel 11,4″-disubstituted azithromycin analogs with greatly improved activity against erythromycin-resistant bacteria” (2013).
Converted amounts (≈) assume the structure as drawn.

Columns and labels:
Salmonella typhimurium [1] = test: Antibacterial activity against Salmonella typhimurium TA102 by broth microdilution method; format: functional, Salmonella enterica subsp. enterica serovar Typhimurium; details: Salmonella enterica
Salmonella typhimurium [2] = test: Antibacterial activity against Salmonella typhimurium TA98 by broth microdilution method; format: functional, Salmonella enterica subsp. enterica serovar Typhimurium; details: Salmonella enterica
Streptococcus pneumoniae [3] = test: Ratio of azithromycin MIC to compound MIC for erythromycin-resistant Streptococcus pneumoniae AB11 expressing erm and mef genes; format: functional
Streptococcus pneumoniae [4] = test: Ratio of azithromycin MIC to compound MIC for erythromycin-resistant Streptococcus pneumoniae A22072 expressing mef gene; format: functional
Streptococcus pneumoniae [5] = test: Ratio of azithromycin MIC to compound MIC for erythromycin-resistant Streptococcus pneumoniae B1; format: functional
Streptococcus pyogenes [6] = test: Antibacterial activity against erythromycin-resistant Streptococcus pyogenes RE clinical isolate by broth microdilution method; format: functional
Streptococcus pyogenes [7] = test: Antibacterial activity against erythromycin-susceptible Streptococcus pyogenes by broth microdilution method; format: functional
Staphylococcus aureus [8] = test: Antibacterial activity against methicillin-susceptible Staphylococcus aureus ATCC 29213 by broth microdilution method; format: functional
Staphylococcus aureus [9] = test: Antibacterial activity against penicillin-resistant Staphylococcus aureus clinical isolate by broth microdilution method; format: functional
Staphylococcus aureus [10] = test: Antibacterial activity against erythromycin-susceptible Staphylococcus aureus ATCC 25923 by broth microdilution method; format: functional
Streptococcus pneumoniae [11] = test: Antibacterial activity against erythromycin-resistant Streptococcus pneumoniae AB11 expressing erm and mef genes by broth microdilution method; format: functional
Streptococcus pneumoniae [12] = test: Antibacterial activity against erythromycin-resistant Streptococcus pneumoniae A22072 expressing mef gene by broth microdilution method; format: functional
Streptococcus pneumoniae [13] = test: Antibacterial activity against erythromycin-resistant Streptococcus pneumoniae B1 expressing erm gene by broth microdilution method; format: functional
Streptococcus pneumoniae [14] = test: Antibacterial activity against erythromycin-susceptible Streptococcus pneumoniae ATCC 49619 by broth microdilution method; format: functional

Row | Compound | MIC (Salmonella typhimurium [1]) [µg/mL] | MIC (Salmonella typhimurium [2]) [µg/mL] | Ratio (Streptococcus pneumoniae [3]) | Ratio (Streptococcus pneumoniae [4]) | Ratio (Streptococcus pneumoniae [5]) | MIC (Streptococcus pyogenes [6]) [µg/mL] | MIC (Streptococcus pyogenes [7]) [µg/mL] | MIC (Staphylococcus aureus [8]) [µg/mL] | MIC (Staphylococcus aureus [9]) [µg/mL] | MIC (Staphylococcus aureus [10]) [µg/mL] | MIC (Streptococcus pneumoniae [11]) [µg/mL] | MIC (Streptococcus pneumoniae [12]) [µg/mL] | MIC (Streptococcus pneumoniae [13]) [µg/mL] | MIC (Streptococcus pneumoniae [14]) [µg/mL]
1 | CC[C@H]1OC(=O)[C@H](C)[C@@H](O[C@H]2C[C@@](C)(OC)[C@@H](OC(=O)NCCCCNC(=O)c3cc([N+](=O)[O-])cc([N+](=O)[O-])c3)[C@H](C)O2)[C@H](C)[C@@H](O[C@@H]2O[C@H](C)C[C@H](N(C)C)[C@H]2O)[C@](C)(O)C[C@@H](C)CN(C)[C@H](C)[C@@H](OC(=O)NCCc2ccccc2Cl)[C@]1(C)O | 0.25 (≈ 0.202 µM) | 1 (≈ 0.807 µM) | 128 | 133 | 512 | 16 (≈ 12.9 µM) | 1 (≈ 0.807 µM) | 4 (≈ 3.23 µM) | 2 (≈ 1.61 µM) | 0.12 (≈ 0.0969 µM) | 2 (≈ 1.61 µM) | 0.03 (≈ 0.0242 µM) | 0.25 (≈ 0.202 µM) | 0.03 (≈ 0.0242 µM)
2 | CC[C@H]1OC(=O)[C@H](C)[C@@H](O[C@H]2C[C@@](C)(OC)[C@@H](OC(=O)NCCCCNC(=O)c3cc([N+](=O)[O-])cc([N+](=O)[O-])c3)[C@H](C)O2)[C@H](C)[C@@H](O[C@@H]2O[C@H](C)C[C@H](N(C)C)[C@H]2O)[C@](C)(O)C[C@@H](C)CN(C)[C@H](C)[C@@H](OC(=O)NCCc2ccc(OC)cc2)[C@]1(C)O | 0.5 (≈ 0.405 µM) | 1 (≈ 0.81 µM) | 128 | 133 | 512 | 16 (≈ 13 µM) | 1 (≈ 0.81 µM) | 4 (≈ 3.24 µM) | 4 (≈ 3.24 µM) | 0.25 (≈ 0.203 µM) | 2 (≈ 1.62 µM) | 0.03 (≈ 0.0243 µM) | 0.25 (≈ 0.203 µM) | 0.03 (≈ 0.0243 µM)
3 | CC[C@H]1OC(=O)[C@H](C)[C@@H](O[C@H]2C[C@@](C)(OC)[C@@H](OC(=O)NCCCCNC(=O)c3cc([N+](=O)[O-])cc([N+](=O)[O-])c3)[C@H](C)O2)[C@H](C)[C@@H](O[C@@H]2O[C@H](C)C[C@H](N(C)C)[C@H]2O)[C@](C)(O)C[C@@H](C)CN(C)[C@H](C)[C@@H](OC(=O)NCc2ccc(F)c(F)c2)[C@]1(C)O | 0.5 (≈ 0.408 µM) | 1 (≈ 0.815 µM) | 128 | 133 | 512 | 16 (≈ 13 µM) | 2 (≈ 1.63 µM) | 4 (≈ 3.26 µM) | 4 (≈ 3.26 µM) | 0.25 (≈ 0.204 µM) | 2 (≈ 1.63 µM) | 0.03 (≈ 0.0245 µM) | 0.25 (≈ 0.204 µM) | 0.03 (≈ 0.0245 µM)
4 | CC[C@H]1OC(=O)[C@H](C)[C@@H](O[C@H]2C[C@@](C)(OC)[C@@H](OC(=O)NCCCCNC(=O)c3ccc(OC)cc3)[C@H](C)O2)[C@H](C)[C@@H](O[C@@H]2O[C@H](C)C[C@H](N(C)C)[C@H]2O)[C@](C)(O)C[C@@H](C)CN(C)[C@H](C)[C@@H](OC(=O)NCc2ccc(OC)cc2)[C@]1(C)O | 2 (≈ 1.72 µM) | 16 (≈ 13.8 µM) | – | – | – | 64 (≈ 55.2 µM) | 32 (≈ 27.6 µM) | 4 (≈ 3.45 µM) | 4 (≈ 3.45 µM) | 1 (≈ 0.862 µM) | 16 (≈ 13.8 µM) | 0.5 (≈ 0.431 µM) | 2 (≈ 1.72 µM) | 0.12 (≈ 0.103 µM)
5 | CC[C@H]1OC(=O)[C@H](C)[C@@H](O[C@H]2C[C@@](C)(OC)[C@@H](OC(=O)NNC(=O)c3ccc(Cl)cc3)[C@H](C)O2)[C@H](C)[C@@H](O[C@@H]2O[C@H](C)C[C@H](N(C)C)[C@H]2O)[C@](C)(O)C[C@@H](C)CN(C)[C@H](C)[C@@H](OC(=O)NCCc2ccccc2)[C@]1(C)O | 8 (≈ 7.32 µM) | 1 (≈ 0.915 µM) | – | – | – | 32 (≈ 29.3 µM) | 1 (≈ 0.915 µM) | 2 (≈ 1.83 µM) | 8 (≈ 7.32 µM) | 0.5 (≈ 0.458 µM) | 8 (≈ 7.32 µM) | 0.12 (≈ 0.11 µM) | 2 (≈ 1.83 µM) | 0.03 (≈ 0.0275 µM)
6 | CC[C@H]1OC(=O)[C@H](C)[C@@H](O[C@H]2C[C@@](C)(OC)[C@@H](OC(=O)NCCNC(=O)c3ccc(OC)c(OC)c3)[C@H](C)O2)[C@H](C)[C@@H](O[C@@H]2O[C@H](C)C[C@H](N(C)C)[C@H]2O)[C@](C)(O)C[C@@H](C)CN(C)[C@H](C)[C@@H](OC(=O)NCCc2ccccc2)[C@]1(C)O | 2 (≈ 1.74 µM) | 8 (≈ 6.98 µM) | – | – | – | 64 (≈ 55.8 µM) | 32 (≈ 27.9 µM) | 4 (≈ 3.49 µM) | 4 (≈ 3.49 µM) | 1 (≈ 0.872 µM) | 16 (≈ 14 µM) | 0.5 (≈ 0.436 µM) | 4 (≈ 3.49 µM) | 0.06 (≈ 0.0523 µM)
